From PMC9575003 (Pharmacology, biochemistry, and behavior, 2016)

How the values were obtained:
[1] = target: hNET (norepinephrine transporter) (Homo sapiens, UniProt P23975); experiment: in vitro binding affinity
dopamine D4 receptor = dopamine D4 receptor (Homo sapiens, UniProt P21917); experiment: Ki, apparently from the radioligand screening panel
[2] = target: hSERT (serotonin transporter) (Homo sapiens, UniProt P31645); experiment: in vitro binding affinity
[3] = target: hDAT (dopamine transporter) (Homo sapiens, UniProt Q01959); experiment: in vitro binding affinity
hDAT (dopamine transporter), sequence (Q01959 whole entry): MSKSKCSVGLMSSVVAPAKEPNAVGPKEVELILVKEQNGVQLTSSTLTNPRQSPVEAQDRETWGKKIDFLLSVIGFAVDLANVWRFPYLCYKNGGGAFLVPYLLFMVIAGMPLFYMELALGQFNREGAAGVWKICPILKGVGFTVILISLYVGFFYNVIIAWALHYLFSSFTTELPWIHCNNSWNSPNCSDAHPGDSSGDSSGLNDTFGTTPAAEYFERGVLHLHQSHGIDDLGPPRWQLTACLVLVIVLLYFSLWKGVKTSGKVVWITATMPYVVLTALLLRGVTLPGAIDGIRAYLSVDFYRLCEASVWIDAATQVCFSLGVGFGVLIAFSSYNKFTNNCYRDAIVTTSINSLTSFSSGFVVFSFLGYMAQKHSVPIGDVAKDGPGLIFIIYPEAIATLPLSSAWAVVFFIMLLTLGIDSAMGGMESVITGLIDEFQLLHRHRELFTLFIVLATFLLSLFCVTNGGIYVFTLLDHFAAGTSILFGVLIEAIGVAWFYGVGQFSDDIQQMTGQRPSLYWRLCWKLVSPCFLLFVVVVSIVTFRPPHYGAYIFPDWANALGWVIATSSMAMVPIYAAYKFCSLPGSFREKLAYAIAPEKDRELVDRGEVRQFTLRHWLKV

dopamine D4 receptor, sequence (P21917 whole entry): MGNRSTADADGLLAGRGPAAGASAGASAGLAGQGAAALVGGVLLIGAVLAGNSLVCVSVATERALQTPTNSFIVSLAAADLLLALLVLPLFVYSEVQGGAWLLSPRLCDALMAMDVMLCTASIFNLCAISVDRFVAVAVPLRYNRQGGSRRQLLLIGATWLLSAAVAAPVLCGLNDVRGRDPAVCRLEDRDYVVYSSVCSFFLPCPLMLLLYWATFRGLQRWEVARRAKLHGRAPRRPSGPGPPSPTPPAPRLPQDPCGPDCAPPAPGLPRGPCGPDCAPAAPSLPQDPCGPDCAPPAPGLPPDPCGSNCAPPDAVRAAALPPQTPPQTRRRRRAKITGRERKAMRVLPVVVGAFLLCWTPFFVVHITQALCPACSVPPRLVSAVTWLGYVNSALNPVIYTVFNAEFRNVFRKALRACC
hSERT (serotonin transporter), sequence (P31645 whole entry): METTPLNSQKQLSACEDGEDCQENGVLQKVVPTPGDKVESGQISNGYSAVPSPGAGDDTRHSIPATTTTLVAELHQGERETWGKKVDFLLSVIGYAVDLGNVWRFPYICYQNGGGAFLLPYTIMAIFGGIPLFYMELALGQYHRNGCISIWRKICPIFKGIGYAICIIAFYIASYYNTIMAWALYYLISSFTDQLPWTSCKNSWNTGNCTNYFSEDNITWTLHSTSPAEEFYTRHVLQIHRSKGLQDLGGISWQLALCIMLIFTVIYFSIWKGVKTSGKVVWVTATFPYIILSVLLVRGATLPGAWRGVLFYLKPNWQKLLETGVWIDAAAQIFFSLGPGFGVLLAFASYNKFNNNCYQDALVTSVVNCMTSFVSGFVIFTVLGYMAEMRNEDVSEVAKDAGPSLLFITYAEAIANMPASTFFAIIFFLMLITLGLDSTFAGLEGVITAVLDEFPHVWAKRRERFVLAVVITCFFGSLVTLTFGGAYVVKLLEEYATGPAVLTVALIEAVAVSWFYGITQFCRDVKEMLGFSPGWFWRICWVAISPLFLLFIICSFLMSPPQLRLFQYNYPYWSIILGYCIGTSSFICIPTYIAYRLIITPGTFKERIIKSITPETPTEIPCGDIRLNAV
hNET (norepinephrine transporter), sequence (P23975 whole entry): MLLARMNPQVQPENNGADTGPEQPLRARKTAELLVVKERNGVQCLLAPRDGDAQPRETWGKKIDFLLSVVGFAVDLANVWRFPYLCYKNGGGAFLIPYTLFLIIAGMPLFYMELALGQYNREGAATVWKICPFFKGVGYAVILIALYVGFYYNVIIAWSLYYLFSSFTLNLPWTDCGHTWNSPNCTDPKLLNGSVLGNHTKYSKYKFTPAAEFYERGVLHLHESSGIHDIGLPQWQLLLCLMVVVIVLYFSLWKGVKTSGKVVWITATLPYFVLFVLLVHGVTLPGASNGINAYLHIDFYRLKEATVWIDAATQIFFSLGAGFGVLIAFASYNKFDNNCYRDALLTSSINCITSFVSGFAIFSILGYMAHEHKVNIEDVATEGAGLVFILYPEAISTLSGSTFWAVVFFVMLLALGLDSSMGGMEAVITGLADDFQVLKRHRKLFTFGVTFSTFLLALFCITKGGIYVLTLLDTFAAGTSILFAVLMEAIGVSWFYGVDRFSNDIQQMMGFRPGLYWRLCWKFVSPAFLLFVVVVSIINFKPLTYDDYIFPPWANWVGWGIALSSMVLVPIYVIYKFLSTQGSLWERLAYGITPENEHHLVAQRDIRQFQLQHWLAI

## C[C@@H](CN1CCC(Cc2ccccc2)CC1)C(O)c1ccc(O)cc1 (stereo partly shown) [MI-4, Ro-25-6981]
[1]
  Ki: 365 nM
Dopamine D4 receptor
  Ki: 120 nM
[2]
  Ki: 670 nM
[3]
  Ki: 3460 nM
